Target: T1, hFXR (Homo sapiens, UniProt Q96RI1)
T1 construct: expressed in transfected cells; host or cells: CV-1 cells
T1 sequence (Q96RI1 1-486): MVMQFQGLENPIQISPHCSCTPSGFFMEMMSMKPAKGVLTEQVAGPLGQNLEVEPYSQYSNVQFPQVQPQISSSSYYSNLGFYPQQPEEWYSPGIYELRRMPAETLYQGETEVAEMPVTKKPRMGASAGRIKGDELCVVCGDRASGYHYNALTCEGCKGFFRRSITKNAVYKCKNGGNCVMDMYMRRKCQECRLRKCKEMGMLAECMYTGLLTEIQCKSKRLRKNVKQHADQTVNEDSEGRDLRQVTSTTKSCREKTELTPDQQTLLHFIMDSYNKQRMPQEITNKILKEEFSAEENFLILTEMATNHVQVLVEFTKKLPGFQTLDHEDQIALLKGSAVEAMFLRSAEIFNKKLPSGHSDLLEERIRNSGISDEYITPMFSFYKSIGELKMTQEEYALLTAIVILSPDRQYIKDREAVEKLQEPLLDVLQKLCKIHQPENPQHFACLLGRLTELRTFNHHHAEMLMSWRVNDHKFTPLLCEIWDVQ
T1 sequence (P19793 1-462 partner): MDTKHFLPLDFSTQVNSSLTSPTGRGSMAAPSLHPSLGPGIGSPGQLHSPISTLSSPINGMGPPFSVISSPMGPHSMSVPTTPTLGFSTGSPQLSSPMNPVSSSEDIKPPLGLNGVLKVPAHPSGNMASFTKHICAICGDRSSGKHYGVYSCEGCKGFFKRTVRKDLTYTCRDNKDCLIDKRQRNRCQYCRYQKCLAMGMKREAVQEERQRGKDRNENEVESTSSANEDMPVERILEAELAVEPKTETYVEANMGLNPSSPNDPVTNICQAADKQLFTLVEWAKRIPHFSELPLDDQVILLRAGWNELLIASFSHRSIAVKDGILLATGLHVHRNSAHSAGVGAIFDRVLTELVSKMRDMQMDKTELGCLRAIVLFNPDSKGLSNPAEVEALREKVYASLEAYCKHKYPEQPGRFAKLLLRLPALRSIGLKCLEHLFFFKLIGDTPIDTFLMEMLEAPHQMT
Assay: In Vitro FXR Assay (TK): hFXR/hRXR TK-ECRE-luc reporter in transfected CV-1 cells
Assay type: cell-based
Conditions: CV-1 cells transfected with hFXR, hRXR, 18 hrs incubation, luminescence, maximum efficacy <25% of Fexarmine control also classified as ‘+’
Experimental: Example B-1: In Vitro FXR Assay (TK)
CV-1 cells were seeded at a density of 2,000,000 cells in a T175 flask with DMEM+10% charcoal double-stripped FBS and incubated at 37° C. in 5% CO2 for 18 h (O/N).
After 18 h of incubation, the medium in the T175 flask was changed with fresh DMEM+10% charcoal super-stripped serum. In a polypropylene tube, 2500 μL OptiMEM (Life Technologies, Cat #31985-062) was combined with expression plasmids for hFXR, hRXR, TK-ECRE-luc and pCMX-YFP. The tube was then briefly vortexed and incubated at room temperature for 5 minutes. Transfection reagent (X-tremeGENE HP from Roche, Cat #06 366 236 001) was added to the OptiMEM/plasmid mixture vortexed and incubated at room temperature for 20 minutes. Following incubation, the transfection reagent/DNA mixture complex was added to cells in the T175 flask and the cells were incubated at 37° C. in 5% CO2 for 18 h (0/N).
Compounds were serially diluted in DMSO and added to transfected CV-1 cells. The cells were then incubated for 18 hrs. The next day cells were lysed and examined for luminescence.

Row | EC50 [nM] | SMILES
1 | ≤ 500 | COc1ccc([C@H]2CC[C@H](CN(c3cccc(-c4coc(C5CC5)n4)c3)C(=O)[C@H]3CC[C@H](O)CC3)CC2)cc1C#N [Compound 10.11, trans-N-((trans-4-(3-Cyano-4-methoxyphenyl)cyclohexyl)methyl)-N-(3-(2-cyclopropyloxazol-4-yl)phenyl)-4-hydroxycyclohexanecarboxamide]
2 | ≥ 1000 | COc1ccc([C@H]2CC[C@@H](CN(c3cccc(-c4coc(C5CC5)n4)c3)C(=O)[C@H]3CC[C@H](O)CC3)CC2)nc1C [Compound 10.10, trans-N-(3-(2-Cyclopropyloxazol-4-yl)phenyl)-4-hydroxy-N-((cis-4-(5-methoxy-6-methylpyridin-2-yl)cyclohexyl)methyl) cyclohexanecarboxamide]
3 | ≤ 500 | COc1ccc([C@H]2CC[C@H](CN(c3cccc(-c4coc(C(C)C)n4)c3)C(=O)[C@H]3CC[C@H](O)CC3)CC2)nc1C#N [Compound 10.20, trans-N-((trans-4-(6-Cyano-5-methoxypyridin-2-yl)cyclohexyl)methyl)-4-hydroxy-N-(3-(2-isopropyloxazol-4-yl)phenyl)cyclohexanecarboxamide]
4 | ≤ 500 | COc1ccc([C@H]2CC[C@H](CN(c3cccc(C#Cc4nnn(C)n4)c3)C(=O)[C@H]3CC[C@H](O)CC3)CC2)cc1C [Compound 11.03, trans-4-Hydroxy-N-((trans-4-(4-methoxy-3-methylphenyl)cyclohexyl)methyl)-N-(3-((2-methyl-2H-tetrazol-5-yl)ethynyl)phenyl) cyclohexanecarboxamide]
5 | ≤ 500 | COc1ccc([C@H]2CC[C@H](CN(c3cccc(-c4coc(C5CC5)n4)c3)C(=O)[C@H]3CC[C@H](O)CC3)CC2)nc1C#N [Compound 10.14, trans-N-((trans-4-(6-Cyano-5-methoxypyridin-2-yl)cyclohexyl)methyl)-N-(3-(2-cyclopropyloxazol-4-yl)phenyl)-4-hydroxycyclohexanecarboxamide]
6 | ≤ 500 | COc1ccc([C@H]2CC[C@H](CN(c3cccc(-c4coc(C(C)C)n4)c3)C(=O)[C@H]3CC[C@H](O)CC3)CC2)cc1C [Compound 10.04, trans-4-Hydroxy-N-(3-(2-isopropyloxazol-4-yl)phenyl)-N-((trans-4-(4-methoxy-3-methylphenyl)cyclohexyl)methyl) cyclohexanecarboxamide]
7 | ≤ 500 | COc1ccc(C23CCC(CN(c4cccc(-c5cc(C6CC6)ns5)c4)C(=O)[C@H]4CC[C@H](O)CC4)(CC2)CC3)cc1C [Compound 10.01, trans-N-(3-(3-Cyclopropylisothiazol-5-yl)phenyl)-4-hydroxy-N-((4-(4-methoxy-3-methylphenyl)bicyclo[2.2.2]octan-1-yl)methyl)cyclohexanecarboxamide]
8 | ≤ 500 | COc1ccc([C@H]2CC[C@H](CN(c3cc(-c4coc(C5CC5)n4)ccn3)C(=O)[C@H]3CC[C@H](O)CC3)CC2)nc1C#N [Compound 10.19, trans-N-((trans-4-(6-Cyano-5-methoxypyridin-2-yl)cyclohexyl)methyl)-N-(4-(2-cyclopropyloxazol-4-yl)pyridine-2-yl)-4-hydroxycyclohexanecarboxamide]
9 | ≤ 500 | CCc1nc(-c2ccnc(N(C[C@H]3CC[C@H](c4ccc(OC)c(C)n4)CC3)C(=O)[C@H]3CC[C@H](O)CC3)c2)co1 [Compound 10.22, trans-N-(4-(2-Ethyloxazol-4-yl)pyridin-2-yl)-4-hydroxy-N-((trans-4-(5-methoxy-6-methylpyridin-2-yl)cyclohexyl)methyl) cyclohexanecarboxamide]

More lines, now with the values behind:

Row | SMILES | EC50 [nM]
10 | COc1ccc([C@H]2CC[C@H](CN(c3cccc(-c4noc(C)n4)c3)C(=O)[C@H]3CC[C@H](O)CC3)CC2)cc1C [Compound 9.11, trans-4-Hydroxy-N-((trans-4-(4-methoxy-3-methylphenyl)cyclohexyl)methyl)-N-(3-(5-methyl-1,2,4-oxadiazol-3-yl)phenyl)cyclohexanecarboxamide] | 500 to 1000
11 | COc1ccc([C@H]2CC[C@H](CN(c3cccc(-c4nnc(C)o4)c3)C(=O)[C@H]3CC[C@H](O)CC3)CC2)cc1C [Compound 6, trans-4-Hydroxy-N-((trans-4-(4-methoxy-3-methylphenyl)cyclohexyl)methyl)-N-(3-(5-methyl-1,3,4-oxadiazol-2-yl)phenyl)cyclohexanecarboxamide] | ≥ 1000
12 | COc1ccc([C@H]2CC[C@H](CN(c3cccc(-c4ncn(C)n4)c3)C(=O)[C@H]3CC[C@H](O)CC3)CC2)cc1C [Compound 2.10, trans-4-Hydroxy-N-((trans-4-(4-methoxy-3-methylphenyl)cyclohexyl)methyl)-N-(3-(1-methyl-1H-1,2,4-triazol-3-yl)phenyl)cyclohexanecarboxamide] | ≥ 1000
13 | COc1ccc([C@H]2CC[C@H](CN(c3cccc(-c4cnc(C)o4)c3)C(=O)[C@H]3CC[C@H](O)CC3)CC2)cc1C [Compound 8, trans-4-Hydroxy-N-((trans-4-(4-methoxy-3-methylphenyl)cyclohexyl)methyl)-N-(3-(2-methyloxazol-5-yl)phenyl)cyclohexanecarboxamide] | ≤ 500
14 | COc1ccc([C@H]2CC[C@H](CN(c3cccc(-c4cc(C5CC5)ns4)c3)C(=O)[C@H]3CC[C@H](O)CC3)CC2)cc1C [Compound 9, trans-N-(3-(3-Cyclopropylisothiazol-5-yl)phenyl)-4-hydroxy-N-((trans-4-(4-methoxy-3-methylphenyl)cyclohexyl)methyl)cyclohexanecarboxamide] | ≤ 500
15 | COc1ccc([C@H]2CC[C@H](CN(c3cccc(-c4nc(C)co4)c3)C(=O)[C@H]3CC[C@H](O)CC3)CC2)cc1C [Compound 9.03, trans-4-Hydroxy-N-((trans-4-(4-methoxy-3-methylphenyl)cyclohexyl)methyl)-N-(3-(4-methyloxazol-2-yl)phenyl)cyclohexanecarboxamide] | ≥ 1000
16 | COc1ccc([C@H]2CC[C@H](CN(c3cccc(-c4nc(C)no4)c3)C(=O)[C@H]3CC[C@H](O)CC3)CC2)cc1C [Compound 9.02, trans-4-Hydroxy-N-((trans-4-(4-methoxy-3-methylphenyl)cyclohexyl)methyl)-N-(3-(3-methyl-1,2,4-oxadiazol-5-yl)phenyl)cyclohexanecarboxamide] | 500 to 1000
17 | COc1ccc([C@H]2CC[C@H](CN(c3cccc(-c4cnn(C)n4)c3)C(=O)[C@H]3CC[C@H](O)CC3)CC2)cc1C [Compound 2.09, trans-4-Hydroxy-N-((trans-4-(4-methoxy-3-methylphenyl)cyclohexyl)methyl)-N-(3-(2-methyl-2H-1,2,3-triazol-4-yl)phenyl)cyclohexanecarboxamide] | ≥ 1000
18 | CCc1cc(-c2cccc(N(C[C@H]3CC[C@H](c4ccc(OC)c(C)c4)CC3)C(=O)[C@H]3CC[C@H](O)CC3)c2)ns1 [Compound 9.06, trans-N-(3-(5-Ethylisothiazol-3-yl)phenyl)-4-hydroxy-N-((trans-4-(4-methoxy-3-methylphenyl)cyclohexyl)methyl) cyclohexanecarboxamide] | ≤ 500
19 | COc1ccc([C@H]2CC[C@H](CN(c3cccc(-c4cc(C)on4)c3)C(=O)[C@H]3CC[C@H](O)CC3)CC2)cc1C [Compound 9.08, trans-4-Hydroxy-N-((trans-4-(4-methoxy-3-methylphenyl)cyclohexyl)methyl)-N-(3-(5-methylisoxazol-3-yl)phenyl)cyclohexanecarboxamide] | ≤ 500
20 | COc1ccc([C@H]2CC[C@H](CN(c3cccc(C#Cc4nnc[nH]4)c3)C(=O)[C@H]3CC[C@H](O)CC3)CC2)cc1C [Compound 14, trans-N-(3-((1H-1,2,4-Triazol-3-yl)ethynyl)phenyl)-4-hydroxy-N-((trans-4-(4-methoxy-3-methylphenyl)cyclohexyl)methyl)cyclohexanecarboxamide] | ≤ 500
21 | COc1ccc([C@H]2CC[C@H](CN(c3cccc(-c4coc(C5CC5)n4)c3)C(=O)[C@H]3CC[C@H](O)CC3)CC2)cc1C [Compound 9.15] | ≤ 500
